Drawing on patent US7884123B2, “Substituted thieno[2,3-c]pyrazoles, process for preparing them, compositions containing them, and use thereof” (Aventis Pharma S.A., priority 2004, dated 2011), this text covers IC50 and melting point for three compounds.

Counter-ions that a name gives are not always drawn. Where only a bound is given, the exact number is not on record here.

The target of one data set is T1, Aurora2 (Homo sapiens, UniProt O14965).
T1 construct: A complete recombinant Aurora2 enzyme, the N-terminal of which was labeled with histidine, was expressed in E. coli; His tag (N); made in house; host or cells: E. coli
T1 sequence (O14965 1-403): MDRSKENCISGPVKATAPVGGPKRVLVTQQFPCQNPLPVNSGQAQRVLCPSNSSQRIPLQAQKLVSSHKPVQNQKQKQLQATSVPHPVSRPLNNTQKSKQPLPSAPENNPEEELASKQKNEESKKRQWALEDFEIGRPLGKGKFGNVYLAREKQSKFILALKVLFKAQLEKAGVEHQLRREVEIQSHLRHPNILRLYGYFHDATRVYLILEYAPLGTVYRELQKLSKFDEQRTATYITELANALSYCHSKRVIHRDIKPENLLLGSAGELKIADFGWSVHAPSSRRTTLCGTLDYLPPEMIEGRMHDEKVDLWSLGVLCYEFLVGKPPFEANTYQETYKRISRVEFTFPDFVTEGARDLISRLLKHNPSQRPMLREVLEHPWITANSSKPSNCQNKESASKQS
The experiment in a line: Aurora2 kinase radioactivity scintillation test using nickel chelate. The class given is biochemical. On the procedure:
The inhibitory effect of the compounds toward the kinase Aurora2 is determined via a radioactivity scintillation test using nickel chelate.
A complete recombinant Aurora2 enzyme, the N-terminal of which was labeled with histidine, was expressed in E. coli and purified to a quality close to homogeneity.
The C-terminal fragment (Q1687-H2101) of an NuMA (Nuclear protein which is associated with the Mitotic Apparatus) expressed in E. coli, and the N-terminal end of which was labeled with histidine, was purified by nickel chelate chromatography and used as substrate in the Aurora2 kinase test.
To determine the kinase activity, the substrate NuMA is equilibrated by chromatography on a PD10 Pharmacia column, in a buffer (50 mM Tris-HCl, pH 7.5, 50 mM NaCl, 10 mM MgCl2) supplemented with 10% (v/v) of glycerol and 0.05% (w/v) of NP40.
The kinase activity of Aurora2 is measured by scintillation with nickel chelate (New England Nuclear, SMP107 model). Each well contains 100 μl of the following solution: 0.02 μM of Aurora2; 0.5 μM of NuMA substrate; 1 μM of ATP supplemented with 0.5 μCi of ATP-[^33P]. The solutions are incubated for 30 minutes at 37° C. The test buffer is then removed and the wells are rinsed twice with 300 μl of kinase buffer. The radioactivity is measured in each well using a Packard Model Top Count NXT machine.
The background noise is deduced by measuring radioactivity measured in duplicate in wells containing the radioactive ATP alone containing buffered kinase treated in the same manner as for the other samples.
The activity of the control is determined by measuring in duplicate the radioactivity in the complete test mixture (ATP, Aurora2 and substrate NuMA), in the absence of test compound.
The inhibition of the activity of Aurora2 with a compound of the invention is expressed as a percentage of inhibition of the control activity in the absence of test compound. Staurosporin is added to each plate as inhibition control.
The activity of the products was determined by measuring the inhibition of Aurora2 activity.

In another data set the target is T2, CDK2/cycline E (Homo sapiens, UniProt P24941).
T2 construct: made in house; host or cells: Sf21 insect cells (baculovirus coinfection)
The experiment in a line: CDK2/cyclineE Flashplate test in 96-well format. The class given is biochemical. As for the experimental part: Purification of the CDK2/cyclineE-(His)6 Complex by IMAC (Immobilized Metal Affinity Chromatography):
Two recombinant baculoviruses bearing the human sequences coding, respectively, for CDK2 and cyclineE (the latter bearing a C-terminal hexahistidine tag) are used to coinfect Sf21 insect cells. Two to three days after the start of coinfection, the cells are harvested by centrifugation and then stored at −40° C. until the time of use. After thawing and mechanical lysis of the cells, the complex present in the lysis supernatant is purified by affinity chromatography on nickel (IMAC), and stored at −80° C.
CDK2/cyclineE Flashplate Test in 96-Well Format.
A format in streptavidin-coated 96-well plates is used to test the activity of the compounds on the kinase activity of CDK2/cycline E.
To perform this test, the biotinylated peptide substrate, a fragment of the protein pRb (biotinyl-[…]—OH) (SEQ ID NO: 1), is dissolved at a concentration of 1 mM in kinase buffer (HEPES/NaOH 50 mM, NaCl 1 mM, MgCl2 5 mM, pH 7.5) in order to constitute a stock solution stored at −20° C. in the form of 110 μL aliquots. On the day of the experiment, an aliquot of this solution is thawed and diluted in kinase buffer containing 1 mM of dithiothreitol, added to the buffer extemporaneously, in order to obtain a concentration of 14.3 μM. 70 μL of this solution are added to each well of the Flashplate in order to obtain a final substrate concentration of 10 μM during the enzymatic reaction performed in a final volume of the reaction medium of 100 μL (cf. below).
Intermediate dilutions of inhibitors (products of the invention) at various concentrations are prepared in DMSO from stock solutions at 10 mM in separate tubes. […]
When the incubation is complete, the plate is washed three times with 300 μL per well of PBS (phosphate-buffered saline, pH=7.4, without calcium or magnesium, reference 10010-015, Gibco BRL). The incorporation of ^33P to the peptide is quantified by scintillation counting with a Packard Topcount.NXT machine. […]

The target in another data set is T3, human Tie2 (Homo sapiens, UniProt Q02763).
T3 construct: amino acids of the intracellular domain 776-1124; made in house; host or cells: baculovirus expression (pFastBacGT vector)
T3 sequence (Q02763 776-1124): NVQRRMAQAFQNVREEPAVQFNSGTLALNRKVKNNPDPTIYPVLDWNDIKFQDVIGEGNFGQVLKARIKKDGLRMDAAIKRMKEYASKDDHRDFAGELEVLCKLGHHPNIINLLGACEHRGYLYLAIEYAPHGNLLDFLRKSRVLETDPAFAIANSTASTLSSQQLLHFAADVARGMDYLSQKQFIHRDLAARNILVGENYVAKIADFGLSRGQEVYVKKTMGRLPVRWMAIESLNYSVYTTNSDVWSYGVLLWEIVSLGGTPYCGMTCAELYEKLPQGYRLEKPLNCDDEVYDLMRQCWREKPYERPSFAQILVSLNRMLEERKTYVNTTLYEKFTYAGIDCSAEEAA
The experiment in a line: Test of phosphorylation of PLC with Tie2 (GST-Tie2). The format is biochemical. On the procedure: The coding sequence of human Tie2 corresponding to the amino acids of the intracellular domain 776-1124 was generated by PCR using the cDNA isolated from a human placenta as a model. This sequence was introduced into a pFastBacGT baculovirus expression vector in the form of a GST fusion protein.
The inhibitory effect of the molecules is determined in a test of phosphorylation of PLC with Tie2 in the presence of GST-Tie2 purified to about 80% homogeneity. The substrate is composed of the SH2-SH3 fragments of PLC expressed in the form of a GST fusion protein.
The kinase activity of Tie2 is measured in a MOPS 20 mM pH 7.2 buffer, containing 10 mM MgCl2, 10 mM MnCl2, 1 mM DTT, 10 mM of glycerophosphate. In a 96-well FlashPlate plate maintained on ice, a reaction mixture is deposited, composed of 70 μL of kinase buffer containing 100 ng of enzyme GST-Tie2 per well. Next, 10 μL of the test molecule diluted in DMSO to a maximum concentration of 10% are added. For a given concentration, each measurement is performed four times. The reaction is initiated by adding 20 μL of solution containing 2 μg of GST-PLC, 2 μm of cold ATP and 1 μCi of ^33P [ATP]. […] The radioactivity is measured on a MicroBeta1450 Wallac.
The inhibition of the Tie2 activity is calculated and expressed as a percentage of inhibition relative to the control activity determined in the absence of compound.

As usually defined, the IC50 is the midpoint of a concentration-inhibition curve. The melting point is the temperature, or range, at which the solid turns liquid. Compound `O=C(NOc1ccccc1)c1cc2c(/C=C/c3ccccc3)n[nH]c2s1` [Example 2] came in with a melting point of 142 °C. Also, the IC50 at Aurora2 is less than 50 nM. The compound further returned an IC50 against CDK2/cycline E of 522 nM.

Take `O=C(NOc1ccccc1)c1cc2c(-c3cc4ccccc4[nH]3)n[nH]c2s1` [Example 1, 3-(1H-indol-2-yl)-1H-thieno[2,3-c]pyrazole-5-(N-phenoxycarboxamide)]: the melting point is 171 °C. On Aurora2, the IC50 is less than 50 nM. The compound further showed an IC50 against CDK2/cycline E of less than 100 nM.

For the compound `O=C(Nc1n[nH]c2sc(C(=O)NOc3ccccc3)cc12)c1cccs1` [Example 3, 3-[(thiophene-2-carbonyl)amino]-1H-thieno[2,3-c]pyrazole-5-(N-phenoxycarboxamide)hydrochloride], the IC50 at Aurora2 is less than 50 nM; against CDK2/cycline E, less than 500 nM; against human Tie2, less than 500 nM.
